Results published in patent US9776990B2, “Isoindolone derivatives” (AbbVie Inc., priority 2012, dated 2017).

How the values were obtained:
BRD4 (BDI_K57-E168) = BRD4 (BDI_K57-E168) (Homo sapiens (Human), UniProt O60885); test: TR-FRET bromodomain binding assay, BRD4 first bromodomain; settings: His-tagged BD1, 100 nM Alexa647 probe
How it was run: (§1)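 His-tagged BRD4 BD1 or BD2 (8 nM) with Eu-anti-His antibody (1 nM) and Alexa647-labelled BET-inhibitor probe (100 nM BDI, 30 nM BDII); 50 μM−0.85 nM compound, 2% DMSO, phosphate buffer pH 6.0, 1 h at room temperature. TR-FRET IC50 by 4-parameter fit, converted to Ki using probe Kd.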

BRD4 (BDII_E352-M457) = BRD4 (BDII_E352-M457) (Homo sapiens (Human), UniProt O60885); test: TR-FRET bromodomain binding assay, BRD4 second bromodomain; settings: His-tagged BD2, 30 nM Alexa647 probe
How it was run: as §1

[1] = test system: breast cancer cell line MX-1; test: MX-1 cell line proliferation assay (3-day, Cell Titer Glo); format: cell-based, human; settings: Homo sapiens, MX1, MX-1 cells, 72 hours, read-out: Cellular proliferation: EC50
Experimental: The impact of compounds of the Examples on cancer cell proliferation was determined using the breast cancer cell line MX-1 (ATCC) in a 3-day proliferation assay. MX-1 cells were maintained in RPMI supplemented with 10% FBS at 37 C.° and an atmosphere of 5% CO2. For compound testing, MX-1 cells were plated in 96-well black bottom plates at a density of 5000 cells/well in 90 μl of culture media and incubated at 37° overnight to allow cell adhesion and spreading. Compound dilution series were prepared in DMSO via a 3-fold serial dilution from 3 mM to 0.1 μM. The DMSO dilution series were then diluted 1:100 in phosphate buffered saline, and 10 μL of the resulted solution were added to the appropriate wells of the MX-1 cell plate. The final compound concentrations in the wells were 3, 1, 0.3, 0.1, 0.03, 0.01, 0.003, 0.001, 0.0003 and 0.0001 μM.
Luminescence readings from the Cell Titer Glo assay were normalized to the DMSO treated cells and analyzed using the GraphPad Prism software with sigmoidal curve fitting to obtain EC50s. The minimum significant ratio (MSR) was determined to evaluate assay reproducibility (Eastwood et al., (2006) J Biomol Screen, 11: 253-261).

[2] = test system: LPS induced IL-6 production; test: LPS (lipopolysaccharide) induced IL-6 production mouse assay; format: in vivo; settings: mice, 3 mg/kg (PO), one hour before LPS, serum 2 hours after LPS
Experimental: Compounds of the Examples listed in Table 8 were assayed for their ability to inhibit LPS (lipopolysaccharide) induced IL-6 production in mice. Severe combined immunodeficient female mice (8 per group) received an intraperitoneal challenge of lipopolysaccharide (2.5 mg/kg, L2630 E. coli 0111:B4) one hour after oral administration (PO) or intraperitoneal administration (IP) of compounds in a solution of 2% ethanol, 5% Tween-80, 20% PEG-400 and 73% (0.2% hydroxypropylmethylcellulose in water). Mice were euthanized 2 hours after lipopolysaccharide injection, blood was removed by cardiac puncture, and then the serum harvested from the blood samples was frozen at −80° C. On the day of the assay the serum samples were brought to room temperature and then diluted 1:20 in phosphate-buffered saline containing 2% bovine serum albumin. Interleukin-6 measurements were performed using a cytokine assay from Meso Scale Discovery (Gaithersburg, Md.) for mouse serum analysis according to the manufacturer's protocol and read on a SECTOR Imager 6000 (Meso Scale Discovery, Gaithersburg, Md.) instrument. Statistical analysis was performed using Prism software (version 5.0) incorporating Dunnett's one way ANOVA. The IL-6 mean and standard deviation of the group of vehicle treated animals were compared with the IL-6 mean and standard deviation of the group treated with drug. A p value <0.05 means that there is less than a 5% probability that the mean values in the two groups are equal.

SMILES: CCS(=O)(=O)Nc1ccc(Oc2ccc(F)cc2F)c(-c2[nH]c(C)c3c2CCCC3=O)c1 [Example 47, N-[4-(2,4-difluorophenoxy)-3-(3-methyl-4-oxo-4,5,6,7-tetrahydro-2H-isoindol-1-yl)phenyl]ethanesulfonamide]
- Ki (BRD4 (BDI_K57-E168)): 11 nM
- Ki (BRD4 (BDII_E352-M457)): 19 nM
- EC50 [1]: 193 nM
- % inhibition of LPS induced IL-6 production [2]: 33.0 at 3 mg/kg (PO) %
